{"source": "paper PMC6026870", "about": "“Selective induction of cancer cell death by VDAC1‐based peptides and their potential use in cancer therapy” (Molecular Oncology, 2018)", "key": {"A549 cells": {"system": "A549 cells", "test": "Apoptosis, annexin V–FITC/PI staining and flow cytometry", "type": "cell-based, human", "settings": "A549, 3 h, serum‐free, 37 °C (Figs 5F,G; also MDA‐MB‐231, Fig. S2B,C)", "protocol": "For PI and annexin V–FITC staining, A549 or MDA‐MB‐231 cells, untreated or treated with VDAC1‐based peptides, were collected (1500 g for 5 min), washed, and resuspended in 200 μL binding buffer (10 mM HEPES/NaOH (pH 7.4), 140 mM NaCl, and 2.5 mM CaCl2). Annexin V–FITC staining was performed according to the recommended protocol. Cells were then washed once with binding buffer and resuspended in 200 μL binding buffer, to which PI was added immediately before flow cytometric analysis. At least 10 000 events were collected, recorded on a dot plot, and analyzed by flow cytometer. Acridine orange/ethidium bromide staining was carried as described previously (Zaid et al., 2005), with cells visualized by fluorescence microscopy (Olympus LX2‐KSP, Tokyo, Japan), and images were captured with a CCD camera. About 200 cells were counted for each experiment."}, "[1]": {"system": "A549‐, MDA‐MB‐231‐, and U‐87MG‐derived tumors", "test": "qPCR of excised xenograft tumors", "type": "in vivo, mouse", "protocol": "U‐87MG cells (3 × 10^6/mouse), A549 cells (5 × 10^6/mouse), or MDA‐MB‐231 cells (3 × 10^6/mouse) were inoculated subcutaneously (s.c.) into the hind leg flanks of athymic 8‐week‐old male nude mice (Envigo, Huntingdon, UK). Tumor size was measured using a digital caliper and volume was calculated, and when reached 50–100 mm^3 for each tumor type, mice were randomly divided into two groups (five mice per group). […] The xenografts were injected (two points, 20 μL per tumor) every two days. Beginning on the day of inoculation, mouse weight and tumor volume were monitored twice a week. Experiments were terminated after 14, 29, or 20 days for U‐87MG‐, MDA‐MB‐231‐, or A549‐based tumors, respectively. The mice were sacrificed and tumors were excised. Half of each tumor was fixed in 4% buffered formaldehyde, paraffin‐embedded, and processed for IHC, while the second half was frozen in liquid nitrogen for immunoblotting and qPCR analyses. These experimental protocols were approved by the Institutional Animal Care and Use Committee of Ben‐Gurion University.\nTotal RNA was isolated from untreated and peptide‐treated tumors (three mice each) using an RNeasy Mini Kit (Qiagen, Hilden, Germany) according to the manufacturer's instructions. Total RNA quality was analyzed using the Agilent RNA 6000 Nano Kit. […] The levels of target genes were normalized relative to β‐actin mRNA levels. Samples were amplified by a 7300 Real‐Time PCR System (Applied Biosystems) for denaturation step of 5 min at 95 °C and 40 cycles using the following PCR parameters: 95 °C for 15 s, 60 °C for 1 min, and 72 °C for 1 min. The copy numbers for each sample were calculated by the CT‐based calibrated standard curve method. The mean fold changes (±SE) of three replicates were calculated."}, "[2]": {"settings": "treated tumors vs control, n = 3 (Fig. 7D,E)"}}}
{"smiles": "CC[C@H](C)[C@H](NC(=O)[C@H](Cc1ccc(O)cc1)NC(=O)[C@@H]1CCCN1C(=O)[C@H](CCCNC(=N)N)NC(=O)[C@H](Cc1c[nH]cn1)NC(=O)[C@@H](CO)NC(=O)[C@@H](Cc1c[nH]c2ccccc12)NC(=O)[C@H](NC(=O)[C@@H](Cc1c[nH]c2ccccc12)NC(=O)[C@@H](CCC(=O)O)NC(=O)[C@@H](CCCCN)NC(=O)[C@@H](CCCCN)NC(=O)[C@@H](CC(C)C)NC(=O)[C@@H](CCC(=O)O)NC(=O)[C@H](NC(=O)[C@@H](C)NC(=O)[C@H](NC(=O)[C@@H](CC(N)=O)NC(=O)[C@@H](CC(C)C)NC(=O)[C@@H](C)NC(=O)[C@@H](Cc1c[nH]c2ccccc12)NC(=O)[C@H](NC(=O)[C@@H](C)NC(=O)CNC(=O)[C@@H](CC(N)=O)NC(=O)[C@@H](CO)NC(=O)[C@@H](CC(N)=O)NC(=O)[C@@H](CCCCN)NC(=O)[C@@H](Cc1c[nH]c2ccccc12)NC(=O)[C@H](NC(=O)[C@@H](Cc1c[nH]c2ccccc12)NC(=O)[C@H](N)CCCCN)[C@H](C)O)[C@H](C)O)C(C)C)[C@H](C)O)[C@H](C)O)C(=O)N[C@@H](C)C(=O)N[C@@H](Cc1c[nH]cn1)C(=O)O", "note": "[R‐Tf‐D‐LP4]", "values": [{"measurement": "apoptotic cell death (annexin V–FITC and PI staining)", "setting": "A549 cells", "value": "over 90%"}, {"measurement": "decrease in expression of Glut‐1, HK‐I and GAPDH", "setting": "[1]; A549, MDA‐MB‐231, U‐87MG tumors vs control (Fig. 8)", "value": "three‐ to fourfold"}, {"measurement": "p53 expression levels, elevation", "setting": "[1]; A549‐, MDA‐MB‐231‐, U‐87MG‐derived tumors, n = 3 (Fig. 7D–F)", "value": "over two‐ to fivefold"}, {"measurement": "Caspase‐8 overexpression", "setting": "[1]; [2]", "value": "two‐ to threefold"}, {"measurement": "SMAC/Diablo expression levels, increase", "setting": "[1]; [2]", "value": "two‐ to fivefold"}, {"measurement": "caspase‐3 overexpression", "setting": "[1]; [2]", "value": "two‐ to threefold"}, {"measurement": "Cyto c expression, increase", "setting": "[1]; treated tumors vs control, n = 3 (Fig. 7D,F)", "value": "two‐ to fourfold"}]}
